According to PMC3565751, “The Feasibility of Enzyme Targeted Activation for Amino Acid/Dipeptide Monoester Prodrugs of Floxuridine; Cathepsin D as a Potential Targeted Enzym” (Molecules, 2012):

Columns and labels:
[1] = test system: Capan-2 cell homogenates and cytosolic enzyme extracts; experiment: Prodrug stability in cytosolic enzyme extract versus whole cell homogenate of Capan-2 cells; assay type: in vitro ADME
Method: In stability studies of test compounds in cell homogenates, the location of enzymes in living cells is not considered and the inaccessible enzymes in vivo condition may be able to degrade those analytes in this in vitro setting. Therefore, the result of prodrug stabilities in cell homogenate may be different to one in vivo, where all enzymes are arranged in all specific locations. The experiments of prodrug activation concerning the location of enzymes in cells were performed at 37 °C in Capan-2 cell homogenates and in cytosolic enzyme extracts. For the comparison purpose, the same experiments were performed at 37 °C in Caco-2 cell homogenates and in cytosolic enzyme extracts. […] The difference between them was minimal (1.4- to 2.5 fold). […] In Capan-2 cells, the stabilities of 5′-O-L-phenylalanyl-L-glycylfloxuridine and 5′-O-L-phenylalanylfloxuridine were improved 7.4- and 7.3-fold, while the ones of 5′-O-L- phenylalanyl-L-tyrosylfloxuridine and 5′-O-L-glycyl-L-leucylfloxuridine were declined 3.9- and 6.0-fold, respectively.
(§1) Preparation of Cytosolic Enzyme Extract. Confluent Caco-2 cells and Capan-2 cells (2 plates; 150 mm × 25 mm plate) were rinsed with saline twice. The cells were washed off with 1 mL of pH 7.4 phosphate buffer (10 mmol/L) and the enzymes were extracted through 30 gauge needle 10 times in ice-cold bath. Cell suspension was spun at 10,000 × g for 2 h at 4 °C and the supernatant was spun at 39,000 × g for 2 h at 4 °C. Protein amount was quantified with the Bio-Rad (Hercules, CA, USA) DC Protein Assay using bovine serum albumin as a standard. The protein amount was adjusted to 500 µg/mL and the hydrolysis reactions were carried out in 96-well plates (Corning). Caco-2 cells and Capan-2 cell suspensions (250 µL) were placed in triplicate wells either presence or absence of various inhibitors, the reactions were started with the addition of substrate (200 µM), and wells were incubated at 37 °C for 120 min (time points; 0, 5, 10, 30, 60, and 120 min). At each time point, aliquot sample (35 µL) was removed and added to 150 µL of acetonitrile (ACN) with 0.1% TFA to prevent the further degradation. The mixtures were filtered with a 0.45 µm filters at 1,000 × g for 10 min at 4 °C. The filtrate wasthen analyzed via reverse-phaseHPLC.
(§2) The initial rates of hydrolysis were used to obtain the apparent first-order rate constants and estimate the half-lives. The apparent first-order degradation rate constants of various floxuridine prodrugs at 37 °C were determined by plotting the logarithm of prodrug remaining as a function of time. The slopes of these plots are related to the rate constant, k, and given by:
(§3) The concentrations of prodrugs and their metabolites were determined on a Waters HPLC system (Waters, Inc., Milford, MA, USA). The HPLC system consisted of two Waters pumps (model 515), a Waters autosampler (WISP model 712), and a Waters UV detector (996 photodiode array detector). The system was controlled by Waters Millennium 32 software (version 3.0.1). Samples were injected onto a Waters Xterra C18 reverse-phase column (5 µm, 4.6 × 250 mm) equipped with a guard column. The compounds were eluted using gradient method. All prodrugs were run with the solvent B gradient changing 0% to 56% at a rate of 2%/min during a 28-min run. Standard curves generated for each prodrug and their parent drugs were used for quantitation of integrated area under peaks.

Capan-2 cell homogenate = experiment: Prodrug hydrolysis in Capan-2 cell homogenate with the presence and the absence of selective enzyme inhibitors; assay type: in vitro ADME; settings: for Half Life, DPP 3 Inhibitor: Capan-2 cell homogenate with 1,10-phenanthroline; for Half Life, DPP 3 Inhibitor / Half Life, TPP 2 Inhibitor / Half Life, Cathepsin D Inhibitor / Half Life, Aminopeptidase Inhibitor / Half Life, Capan-2 Cell Homogenate: 37 °C; for Half Life, DPP 3 Inhibitor / Half Life, TPP 2 Inhibitor / Half Life, Cathepsin D Inhibitor / Half Life, Aminopeptidase Inhibitor: pH 7.4; for Half Life, TPP 2 Inhibitor: Capan-2 cell homogenate with H-Ala-Ala-Phe-CMK CF3CO2H; for Half Life, Cathepsin D Inhibitor: Capan-2 cell homogenate with pepstatin A; for Half Life, Aminopeptidase Inhibitor: Capan-2 cell homogenate with puromycin; for Half Life, Capan-2 Cell Homogenate: no inhibitor, pH 7.4 phosphate buffer, 200 µM substrate, mean ± s.d.
Method: Hydrolysis StudiesPreparation of Capan-2 cell homogenates. Preparation of cell homogenates has been reported previously. Confluent Capan-2 cells (2 plates; 150 mm × 25 mm plate) were rinsed with saline twice. The cells were washed off with 5 mL of pH 7.4 phosphate buffer (10 mmol/L) and the lysed cells by ultrasonication (Micro ultrasonic cell disrupter Model KT40, Kontes, Vineland, NJ, USA) were spun down by centrifugation.
as §1, §2
k = 2.303 × slope (log C vs. time) (1)
The degradation half-lives were then estimated by the equation: […]
as §3

Capan-2 cell lines = experiment: Cell proliferation (XTT) assay; assay type: cell-based; settings: 4 mmol/L, 4 h drug treatment
Method: The percentage of growth inhibition for amino acid/dipeptide monoester prodrugs of floxuridine in Capan-2 cell was evaluated via 2,3-bis[2-methoxy-4-nitro-5-sulfophenyl]-2H-tetrazolium-5-carboxanilideinner salt (XTT) assays (Figure 3). The growth inhibitory effect of tested floxuridine prodrugs after 4 h drug treatment range from 0.0–91.1% at 4 h, 0.0–84.2% at 8 h, and 41.8–84.8% at 24 h in Capan-2 cell lines. […] While specific activation enzymes for 5′-O-L-leucyl-L-glycylfloxuridine and 5′-O-L-phenylalanylfloxuridine have not been identified, those enzymes may be highly localized at the plasma membrane and cytosol. Thus, the activation of those prodrugs took place immediately after translocation of prodrugs into the cells and started inhibiting tumor growth. Leucine and phenylalanine are reportedly good substrates for aminopeptidases and carboxylesterase, respectively.
Cell proliferation studies were conducted with Capan-2 cell lines. The cells were seeded into 96-well plates at […] per well and allowed to attach/grow for 24 h before drug solutions were added. The culture medium (RPMI-1640 + 10% fetal bovine serum) was removed and the cells were gently washed once with sterile pH 6.0 uptake buffer (145 mM NaCl, 0.5 mM MgCl2, 1 mM NaH2PO4, 1 mM CaCl2, 3 mM KCl, 5 mM glucose, and 5 mM MES). Floxuridine prodrugs and floxuridine were diluted in pH 6.0 uptake buffer to 4 mmol/L using no drug as a 100% viability control. The wash buffer was removed and 25 µL drug solution per well were added and incubated at 37 °C for 4 h in the cell incubator. After this time, the drug solutions were removed and the cells were again gently washed twice with sterile uptake buffer. RPMI-1640 was then added to each well after washing. The cells were allowed to recover for 4 h, 8 h, or 24 h before evaluating cell viability via 2,3-bis[2-methoxy-4-nitro-5-sulfophenyl]-2H-tetrazolium-5-carboxanilide inner salt (XTT) assays. […] Absorbance readings at 450 nm were recorded.

[2] = parameters: method as in PMID 18719516; settings: pH 7.4 phosphate buffer; mean ± s.d.; ref [50]; cited from earlier work
human cathepsin B = target: T1, human cathepsin B (Homo sapiens, UniProt P07858); experiment: Prodrug stability with human cathepsin B; assay type: biochemical; settings: pH 7.4 phosphate buffer, 37 °C, 200 µM substrate
T1 construct: cathepsin B (human liver), and cathepsin D (human liver) were obtained from Sigma Chemical Co; purchased Sigma Chemical Co (St. Louis, MO, USA); host or cells: human liver (tissue-derived)
Text: (§4) The high expression levels of cathepsins in tumors have been reported. It has been investigated if the protein levels of cathepsin B and D would associate with pathological parameters in order to assess the difference in protein levels of cathepsins as possible tumor biomarkers. Cathepsin B, one of the highest gene expressions in enzymes of Capan-2 cell, is a cysteine endopeptidase and reportedly has similar activity to carboxypeptidase and peptidyl-dipeptidase. On the other hand, cathepsin D has been reported that it preferentially hydrolyzes the peptide bond of bulky hydrophobic amino acids and the peptide bond between Phe-Phe of Bz-Arg-Gly-Phe-Phe-Pro-4MbNA [75, 76, 77]. The metabolic stability of floxuridine prodrugs was assessed using human cathepsin B and D in pH 7.4 phosphate buffer. […] However, the enzyme specificity between cathepsin B and D in prodrug activation for those two prodrugs was not observed.
(§5) Prodrug stability with Cathepsin B and D. Lyophilized enzyme powder was dissolved and adjusted to 2.5 mg/mL of pure enzyme, human cathepsin B and D. The hydrolysis reactions were immediately started by adding substrates (200 µM) in 96-well plates (Corning). The reactions were carried out at 37 °C for 120 min (time points; 0, 5, 10, 30, 60, and 120 min). At each time point, aliquot sample (35 µL) was removed and added to 150 µL of acetonitrile (ACN) with 0.1% TFA. The mixtures were filtered with a 0.45 µm filters at 1,000 × g for 10 min at 4 °C. The filtrate was then analyzed via reverse-phase HPLC.
as §2, with “The slopes of these plots are related to the rate constant, k, and given by:” left out
(§6) The concentrations of prodrugs and their metabolites were determined on a Waters HPLC system (Waters, Inc., Milford, MA, USA). […] Standard curves generated for each prodrug and their parent drugs were used for quantitation of integrated area under peaks.

human cathepsin D = target: T2, human cathepsin D (Homo sapiens, UniProt P07339); experiment: Prodrug stability with human cathepsin D; assay type: biochemical; settings: pH 7.4 phosphate buffer, 37 °C, 200 µM substrate
T2 construct: cathepsin B (human liver), and cathepsin D (human liver) were obtained from Sigma Chemical Co; purchased Sigma Chemical Co (St. Louis, MO, USA); host or cells: human liver (tissue-derived)
T2 sequence (P07339 169-412 limits assumed): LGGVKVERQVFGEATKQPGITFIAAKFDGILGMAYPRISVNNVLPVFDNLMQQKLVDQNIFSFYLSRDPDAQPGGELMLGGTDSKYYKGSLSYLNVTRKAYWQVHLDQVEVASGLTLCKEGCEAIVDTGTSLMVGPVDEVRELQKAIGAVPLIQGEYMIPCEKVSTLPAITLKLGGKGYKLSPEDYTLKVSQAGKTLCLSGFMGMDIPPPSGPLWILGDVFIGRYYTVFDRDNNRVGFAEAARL
T2 sequence (P07339 65-162 limits assumed): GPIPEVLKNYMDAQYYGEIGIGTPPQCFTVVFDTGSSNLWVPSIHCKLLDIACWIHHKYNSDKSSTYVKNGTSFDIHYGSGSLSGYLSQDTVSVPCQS
Text: as §4, §5
as §2, with “The slopes of these plots are related to the rate constant, k, and given by:” left out
as §6

| Compound | Hydrolysis products detected in cell homogenates and cytosolic enzyme extracts [1] | Change of stability in all conditions (with and without enzyme inhibitors) (Capan-2 cell homogenate; Capan-2 cell homogenate) | Hydrolysis products observed (Capan-2 cell homogenate; Capan-2 cell homogenate) | Onset of growth inhibition of tumor cells (Capan-2 cell lines) | Half Life, DPP 3 Inhibitor (Capan-2 cell homogenate) [min] | Half Life, TPP 2 Inhibitor (Capan-2 cell homogenate) [min] | Half Life, Cathepsin D Inhibitor (Capan-2 cell homogenate) [min] | Half Life, Aminopeptidase Inhibitor (Capan-2 cell homogenate) [min] | Half Life, Capan-2 Cell Homogenate (Capan-2 cell homogenate) [min] | Half Life, Phosphate Buffer pH 7.4 [2] [min] | Fold decline of stability in cytosolic extract versus Capan-2 cell homogenate ([1]; 37 °C, pH 7.4 phosphate buffer) [fold] | Change of half life with the presence of pepstatin A (Capan-2 cell homogenate; Capan-2 cell homogenate) | Change of half lives with other enzyme inhibitors (not pepstatin A) (Capan-2 cell homogenate; Capan-2 cell homogenate) | Stability (degradation) against cathepsin B compared with absence of enzyme (human cathepsin B) | Stability (degradation) against cathepsin D compared with absence of enzyme (human cathepsin D) | Fold longer half life (stability improved) in cytosolic extract than in Capan-2 cell homogenate ([1]; 37 °C, pH 7.4 phosphate buffer) [fold] |
| --- | --- | --- | --- | --- | --- | --- | --- | --- | --- | --- | --- | --- | --- | --- | --- | --- |
| CC(C)C[C@H](NC(=O)CN)C(=O)OC[C@H]1O[C@@H](n2cc(F)c(=O)[nH]c2=O)C[C@@H]1O [5'-O-L-glycyl-L-leucylfloxuridine] | Floxuridine and amino acid mono ester prodrugs of floxuridine were observed | no change in its stability in all conditions | Amino acid monoester prodrugs of floxuridine and their parent drug were observed | – | – | – | – | – | – | – | – | – | – | – | – | – |
| CC(C)C[C@H](N)C(=O)NCC(=O)OC[C@H]1O[C@@H](n2cc(F)c(=O)[nH]c2=O)C[C@@H]1O [5'-O-L-leucyl-L-glycylfloxuridine] | only floxuridine was detected | – | – | immediately inhibited the growth of tumor cells | 32.2 ± 9.3 | 5.6 ± 0.6 | 7.9 ± 0.7 | 14.0 ± 4.3 | 3.9 ± 1.1 | 23.1 ± 4.1 | – | – | – | – | – | – |
| N[C@@H](Cc1ccccc1)C(=O)N[C@@H](Cc1ccc(O)cc1)C(=O)OC[C@H]1O[C@@H](n2cc(F)c(=O)[nH]c2=O)C[C@@H]1O [5'-O-L-phenylalanyl-L-tyrosyl-floxuridine] | Floxuridine and amino acid mono ester prodrugs of floxuridine were observed | – | Amino acid monoester prodrugs of floxuridine and their parent drug were observed | – | 47.2 ± 3.6 | 42.2 ± 1.3 | 105.7 ± 12.8 | 54.7 ± 2.8 | 42.8 ± 0.0 | 233.9 ± 6.6 | 3.9 | significantly prolonged | not improved | significant degradation | significant degradation | – |
| N[C@@H](Cc1ccccc1)C(=O)OC[C@H]1O[C@@H](n2cc(F)c(=O)[nH]c2=O)C[C@@H]1O [5'-O-L-phenylalanylfloxuridine] | only floxuridine was detected | – | – | immediately inhibited the growth of tumor cells | 28.9 ± 10.7 | 15.3 ± 0.6 | 60.6 ± 4.6 | 48.7 ± 0.37 | 3.0 ± 0.1 | 187.0 ± 19.0 | – | – | – | – | – | 7.3 |
| CC(C)[C@H](N)C(=O)N[C@@H](Cc1ccccc1)C(=O)OC[C@H]1O[C@@H](n2cc(F)c(=O)[nH]c2=O)C[C@@H]1O [5'-O-L-valyl-L-phenylalanyl-floxuridine] | Floxuridine and amino acid mono ester prodrugs of floxuridine were observed | – | Amino acid monoester prodrugs of floxuridine and their parent drug were observed | – | 67.7 ± 15.1 | 46.1 ± 1.9 | 76.4 ± 6.1 | 93.6 ± 29.3 | 56.2 ± 12.8 | 104.7 ± 7.0 | – | – | – | not a good substrate for cathepsins | not a good substrate for cathepsins | – |
| CC[C@H](C)[C@H](N)C(=O)NCC(=O)OC[C@H]1O[C@@H](n2cc(F)c(=O)[nH]c2=O)C[C@@H]1O [5′-O-L-isoleucyl-L-glycylfloxuridine] | only floxuridine was detected | – | – | – | – | – | – | – | – | – | – | – | – | – | – | – |
